From US9763910B1, “Combination therapy for treating cancer” (Huanggang Normal University, priority 2016, dated 2017)

How the values were obtained:
[1] = assay type: in vivo, mouse
Protocol: BALB/c nude mice were divided into two groups, with 8 mice in each group. […] Then, liver, spleen, and kidney weights of the mice in each group were measured and blood was collected. Following at RT for 1 h, the blood was centrifuged at 3000 rpm for 10 min at 4° C. to collect serum before stored at −80° C. Clinical chemistry measurements, e.g., levels of AST, ALT, triglyceride (TG), and total cholesterol (TC), were measured by an automatic biochemical analyzer.

[2] = system: CL1-5 human lung cancer cells engrafted in BALB/c nude mice; experiment: Tumor growth in CL1-5 cell-engrafted BALB/c nude mice; settings: CL1-5 engrafted nude mice
Protocol: The study was carried out as follows: inoculating BALB/c mice with of the CL1-5 human lung cancer cells; dividing the mice into 4 groups 7 days after inoculation with 8 mice in each group and treating them once every two days for 14 days respectively with (i) 0.4 ml of 10% DMSO, (ii) 0.4 ml of 10% DMSO containing 25 μmol of docetaxel, (iii) 0.4 ml of 10% DMSO containing 15.5 μmol of 5-demethylnobiletin, and (iv) 0.4 ml of 10% DMSO containing 25 μmol of docetaxel and 15.5 μmol of 5-demethylnobiletin; growing mice without any treatment for another 14 days; measuring tumor sizes after animal sacrificing.
The experimental BALB/c nude mice were divided into 4 groups, with 8 in each group. Each mouse was inoculated with 0.1 ml of the CL1-5 human lung cancer cells at a density of 10^6 cells/ml. 7 days after of the inoculation, the 4 groups of mice were infused respectively with (i) 27 μl of 10% DMSO; (ii) 25 μmol of docetaxel in a 10% DMSO solution (iii) 15.5 μmol of 5-demethylnobiletin in a 10% DMSO solution; and (iv) 25 μmol of docetaxel and 15.5 μmol of 5-demethylnobiletin in a 10% DMSO solution at a frequency of once every 2 days for 14 days. […]
[1−(fa)2], (fa)1 and (fa)2 are inhibition rates of drug1 and drug2, respectively, and (fa)1,2 is the calculated inhibition rate of combining drug1 and drug2, which is also a theoretical additive effect. […]

CL1-5 lung cancer cells = experiment: Growth inhibition of CL1-5 lung cancer cells (cell viability by absorbance); settings: Homo sapiens, CL1-5, read-out: IC50 rate of docetaxel for the CL1-5 cells
Protocol: The CL1-5 cells were cultured in RPMI 1640 medium containing 100 U/ml penicillin, 100 μg/ml streptomycin, and 10% fetal bovine serum at a temperature of 37° C. and with carbon dioxide at a concentration of 5%. The cultured cells were divided into 8 treatment groups. 4 groups were treated only with docetaxel at different concentrations: 3.125, 6.25, 12.5, and 25.0 nmol of docetaxel per liter of the medium in 100 μl of 10% DMSO solution.

[3] = 15.5 μmol once every 2 days for 14 days, sacrificed after another 14 days
[4] = serum, 15.5 μmol once every 2 days for 14 days

SMILES | Kidney weight [1, 3] | Liver weight [1, 3] | Spleen weight [1, 3] | difference between control group and treatment group in organ weights and clinical chemistry ([1]; Table 1 parameters) | GOT [1, 4] | GPT [1, 4] | TC [1, 4] | TG [1, 4] | experimental inhibition rate (fa) of tumor growth [2] | IC50 (CL1-5 lung cancer cells)
COc1ccc(-c2cc(=O)c3c(O)c(OC)c(OC)c(OC)c3o2)cc1OC [5-Hydroxy-6,7,8,3′,4′-pentamethoxyflavone] | 0.90 ± 0.06 g | 3.93 ± 0.28 g | 0.21 ± 0.04 g | no significant difference | 91.2 ± 9.8 Unit/L | 22.8 ± 5.2 Unit/L | 77.1 ± 4.9 mg/dL | 109.5 ± 36.9 mg/dL | 38% | –
CC(=O)O[C@@]12CO[C@@H]1C[C@H](O)[C@@]1(C)C(=O)[C@H](O)C3=C(C)[C@@H](OC(=O)[C@H](O)[C@@H](NC(=O)OC(C)(C)C)c4ccccc4)C[C@@](O)([C@@H](OC(=O)c4ccccc4)[C@H]21)C3(C)C [docetaxel, 1,7β,10β-trihydroxy-9-oxo-5β,20-epoxytax-11-ene-2α,4,13α-triyl 4-acetate 2-benzoate 13-{(2R,3S)-3-[(tert-butoxycarbonyl)amino]-2-hydroxy-3-phenylpropanoate}, reference compound] | – | – | – | – | – | – | – | – | 47.6% | 0.0284 µM
